Molecules are shown by their SMILES. Where a name gives a salt, the structure may show the parent alone. Read-outs that look alike come from different tables or passages of the source.

From patent US20150065440A1 (Progen Pharmaceuticals Limited, priority 2007, published 2015) come the findings set out here.

The target of one assay is T1, VEGF (Homo sapiens, UniProt P15692).
T1 sequence (P15692 207-395): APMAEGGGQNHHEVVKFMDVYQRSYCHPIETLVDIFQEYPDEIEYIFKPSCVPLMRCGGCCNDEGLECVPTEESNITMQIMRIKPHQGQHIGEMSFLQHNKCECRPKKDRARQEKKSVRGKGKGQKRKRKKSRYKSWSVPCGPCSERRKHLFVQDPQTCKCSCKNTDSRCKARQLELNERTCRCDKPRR
The experiment in a line: Growth factor binding assay (SPR solution affinity), VEGF. As to conditions: HBS-EP buffer, 25° C. The procedure: (§1) Binding affinities of compounds for the growth factors FGF-1, FGF-2 and VEGF were measured using a surface plasmon resonance (SPR) based solution affinity assay.^9 Heparin-coated sensorchips used for this assay were prepared via immobilisation of biotinylated BSA-heparin on a streptavidin-coated sensorchip, or via aldehyde coupling using either adipic acid dihydrazide or 1,4-diaminobutane.^9 For each Kd measurement, solutions were prepared containing a fixed concentration of protein and varying concentrations of the ligand in buffer. Ligands binding to FGF-1 and VEGF were measured in HBS-EP buffer (10 mM HEPES, pH 7.4, 150 mM NaCl, 3.0 mM EDTA and 0.005% (v/v) polysorbate 20), while binding to FGF-2 was measured in HBS-EP buffer containing 0.3 M NaCl. Prior to injection, samples were maintained at 4° C. to maximise protein stability. For each assay mixture, 50-200 μL of solution was injected at 5-40 μL/min and the relative binding response measured. All surface binding experiments were performed at 25° C. The surface was regenerated by injection of 40 μL of 4M NaCl at 40 μL/min, followed by injection of 40 μL of buffer at 40 μL/min.
(§2) Sensorgram data were analysed using the BIAevaluation software (BIAcore) and Kd values determined as previously described.^9 Where Kd values were measured in duplicate, the values represent the average of the duplicate measurements.

The next assay concerns the target FGF-1 (Homo sapiens, UniProt P05230). The assay can be described thus: Growth factor binding assay (SPR solution affinity), FGF-1. As for the experimental part:
as §1, §2

For a further assay, the target named is FGF-2 (Homo sapiens, UniProt P09038). The experiment in a line: Growth factor binding assay (SPR solution affinity), FGF-2. As to conditions: SPR, HBS-EP buffer containing 0.3 M NaCl, 25° C.; read-out: Kd FGF-2. The procedure: as §1, §2
Assay [1] concerns pooled normal human plasma. The experiment in a line: Anticoagulant activity, APTT. To be noted: 0.1 mg/mL in normal pooled human plasma. The procedure: APTT measurements were performed on a STAGO STA-Compact Coagulation Analyser using standard protocols according to the manufacturer's instructions. Unfractionated heparin (UFH) was used as a control.
In assay [2] the test system is normal pooled human plasma. The assay can be described thus: Anticoagulant activity, Heptest. As to conditions: 0.1 mg/mL in normal pooled human plasma.
Assay [3] has as its target T2, recombinant human heparanase (Homo sapiens, UniProt Q9Y251).
T2 sequence (Q9Y251 158-543 limits assumed): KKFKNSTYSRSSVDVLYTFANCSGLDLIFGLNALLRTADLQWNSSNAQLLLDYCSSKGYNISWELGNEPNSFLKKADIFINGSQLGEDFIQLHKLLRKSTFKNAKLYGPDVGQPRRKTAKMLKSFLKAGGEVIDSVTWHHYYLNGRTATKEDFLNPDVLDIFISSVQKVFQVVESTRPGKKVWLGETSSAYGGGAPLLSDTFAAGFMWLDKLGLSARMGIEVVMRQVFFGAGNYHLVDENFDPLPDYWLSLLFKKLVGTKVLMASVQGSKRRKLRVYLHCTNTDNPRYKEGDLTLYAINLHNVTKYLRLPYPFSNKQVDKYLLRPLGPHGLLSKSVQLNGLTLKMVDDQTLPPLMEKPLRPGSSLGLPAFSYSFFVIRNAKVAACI
T2 sequence (Q9Y251 36-109 limits assumed): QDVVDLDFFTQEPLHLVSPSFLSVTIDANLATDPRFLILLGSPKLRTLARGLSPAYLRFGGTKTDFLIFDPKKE
The experiment in a line: Heparanase inhibition assay (fondaparinux cleavage, WST-1). To be noted: read-out: Ki Heparanase; IC50 converted into Ki; fondaparinux 100 μM, pH 5.0.
Method: In the presence of an inhibitor the catalytic activity of heparanase is reduced, and the amount of disaccharide produced and the optical density of the solution are both decreased. The percent inhibition and IC50 of the inhibitor are determined from measurement of the optical density (OD) over a range of inhibitor concentrations.
Assays were carried out in 40 mM sodium acetate buffer, pH 5.0, as follows. […] A blue colour was developed by incubation of the plates at 60° C. for 60 min. […] The IC50 value for each compound was evaluated and converted into a Ki (inhibition constant) using the expression

In another assay the test system is HSV-2. The assay can be described thus: Viral plaque number-reduction assay, HSV-2. To be noted: Human alphaherpesvirus 2, read-out: HSV-2 IC50. As for the experimental part:
(§3) African green monkey kidney (GMK AH1) cells^46 were cultured in Eagle's minimum essential medium (EMEM) supplemented with 2% calf serum, 0.05% Primaton RL substance (Kraft Inc., Norwich, USA) and antibiotics. Human epidermoid carcinoma (HEp-2) cells were cultured in Dulbecco's modified EMEM (DMEM) supplemented with 10% fetal calf serum and antibiotics. […] The RSV strain A-2^50 was used. The RSV stock was prepared as described by Hallak et al.^51 and stored at −70° C. in the presence of 40% sucrose^52.
(§4) The viral infectivity (the plaque number-reduction) assay and the plaque size-reduction assay were carried out as described previously^17. […] Subsequently, the cells were washed with 2 mL of EMEM and overlaid with 1% methylcellulose solution in EMEM. The plaques were visualized by staining with crystal violet solution after 2 (HSV-2) or 3 (HSV-1) days of incubation at 37° C. […] When the compounds were screened for anti-HSV or anti-RSV activity, mixtures of 200 PFU of the virus and the test compound (100 μg/mL) in serum-free EMEM were incubated for 10 min at room temperature before addition to cells and during the entire period of viral infection of cells and the development of viral plaques. In the plaque size-reduction assay, the compounds were added to cells (in methylcellulose overlay medium) after 2 h period of virus infection of cells in the absence of the inhibitor. After 2-3 days of incubation at 37° C., the viral plaques were visualized by staining the cells with 1% solution of crystal violet. For each compound tested, the images of twenty neighboring plaques were captured using a Leica DC300 digital camera attached to a Leitz-Wetzlar Diavert microscope. The area of each plaque was determined using IM500 image software (Leica). Similar protocols were used for RSV, except that the assays were performed in HEp-2 cells and DMEM supplemented with 2% heat-inactivated fetal calf serum was used instead of EMEM.

Another assay concerns RSV. The assay can be described thus: Viral plaque number-reduction assay, RSV. To be noted: human respiratory syncytial virus, read-out: RSV IC50. As for the experimental part: as §3, §4
The mark [4] stands for this setting: SPR, HBS-EP buffer, 25° C., read-out: Kd FGF-1.

FGF-2, sequence (P09038 143-288, species assumed): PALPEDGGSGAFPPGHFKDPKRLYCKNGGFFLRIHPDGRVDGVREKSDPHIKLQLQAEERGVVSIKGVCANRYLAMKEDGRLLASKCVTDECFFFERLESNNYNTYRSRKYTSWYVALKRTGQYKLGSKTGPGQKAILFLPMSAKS
FGF-1, sequence (P05230 whole entry, species assumed): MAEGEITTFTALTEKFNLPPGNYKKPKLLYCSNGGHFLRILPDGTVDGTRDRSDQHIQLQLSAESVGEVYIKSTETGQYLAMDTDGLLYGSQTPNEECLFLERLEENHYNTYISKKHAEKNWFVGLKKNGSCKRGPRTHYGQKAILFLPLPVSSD

With `CC(C)CCCC(C)C1CCC2C3CCC4CC(OCc5cn(CCCOC6OC(COS(=O)(=O)O)C(OS(=O)(=O)O)C(OS(=O)(=O)O)C6OC6OC(COS(=O)(=O)O)C(OS(=O)(=O)O)C(OC7OC(COS(=O)(=O)O)C(OS(=O)(=O)O)C(OS(=O)(=O)O)C7OS(=O)(=O)O)C6OS(=O)(=O)O)nn5)CCC4(C)C3CCC12C` [Compound 48, 3-{4-(Cholestan-3β-yl-oxymethyl)-[1,2,3]triazol-1-yl}propyl 2,3,4,6-tetra-O-sodium sulfonato-α-D-mannopyranosyl-(1→3)-2,4,6-tri-O-sodium sulfonato-α-D-mannopyranosyl-(1→2)-3,4,6-tri-O-sodium sulfonato-α-D-mannopyranoside], the figures for the Kd on VEGF, on FGF-1 (setting [4]) and at FGF-2 were 460 ± 30 nM, 22.6 ± 1 nM and 480 ± 40 nM, respectively. In addition, the APTT in assay [1] is 73.3 s. Also, the Heptest in assay [2] was found to be 33.1 s. The Ki (usually a dissociation constant, usually derived from enzyme kinetics or from competition with a known ligand) in assay [3] is 8.5 ± 0.14 nM.

With `CC(C)CCCC(C)C1CCC2C3CCC4CC(OCc5cn(C6OC(COS(=O)(=O)O)C(OC7OC(COS(=O)(=O)O)C(OC8OC(COS(=O)(=O)O)C(OS(=O)(=O)O)C(OS(=O)(=O)O)C8OS(=O)(=O)O)C(OS(=O)(=O)O)C7OS(=O)(=O)O)C(OS(=O)(=O)O)C6OS(=O)(=O)O)nn5)CCC4(C)C3CCC12C` [Compound 76, 4-(Cholestan-3β-yl-oxymethyl)[1,2,3]triazol-1-yl 2,3,4,6-tetra-O-sodium sulfonato-α-D-glucopyranosyl-(1→4)-2,3,6-tri-O-sodium sulfonato-α-D-glucopyranosyl-(1→4)-1-deoxy-2,3,6-tri-O-sodium sulfonato-β-D-glucopyranoside], the Kd (commonly the constant that tells how readily two partners part at equilibrium) at VEGF amounted to 790 ± 230 nM; on FGF-1 (setting [4]), 50 ± 8 nM; at FGF-2, 610 ± 60 nM. The molecule also showed an APTT in assay [1] of 61.2 s. This molecule also yielded a Heptest in assay [2] of 30.2 s. In addition, the Ki in assay [3] was determined as 16 ± 4 nM.

For the molecule `CC(=O)OC1CC2C(CCC3CC(OS(=O)(=O)O)CCC32C)C2CCC(C(C)CCC(=O)NC3OC(COS(=O)(=O)O)C(OC4OC(COS(=O)(=O)O)C(OC5OC(COS(=O)(=O)O)C(OC6OC(COS(=O)(=O)O)C(OS(=O)(=O)O)C(OS(=O)(=O)O)C6OS(=O)(=O)O)C(OS(=O)(=O)O)C5OS(=O)(=O)O)C(OS(=O)(=O)O)C4OS(=O)(=O)O)C(OS(=O)(=O)O)C3OS(=O)(=O)O)C12C` [Compound 83, N-(2,3,4,6-tetra-O-sodiumsulfonato-α-D-glucopyranosyl-(1→4)-2,3,6-tri-O-sodiumsulfonato-α-D-glucopyranosyl-(1→4)-2,3,6-tri-O-sodiumsulfonato-α-D-glucopyranosyl-(1→4)-2,3,6-tri-O-sodiumsulfonato-β-D-glucopyranosyl)-4-((3R,10S,12S,13R)-3-O-sodiumsulfonato-12-O-acetyl-10,13-dimethylhexadecahydro-1H-cyclopenta[a]phenanthren-17-yl)pentanamide], the Kd on VEGF amounted to 7.95 ± 0.07 nM; at FGF-1 (setting [4]), 1.25 ± 0.07 nM; at FGF-2, 50 ± 4 nM. The molecule also gave an APTT in assay [1] of 41.0 s. In assay [2], the Heptest is recorded as 26.8 s. For the same molecule, the inhibitory constant (Ki) in assay [3] was 20 ± 5 nM.

Regarding `CC(C)CCCC(C)C1CCC2C3CCC4CC(OC5OC(COS(=O)(=O)O)C(OC6OC(COS(=O)(=O)O)C(OC7OC(COS(=O)(=O)O)C(OS(=O)(=O)O)C(OS(=O)(=O)O)C7OS(=O)(=O)O)C(OS(=O)(=O)O)C6OS(=O)(=O)O)C(OS(=O)(=O)O)C5OS(=O)(=O)O)CCC4(C)C3CCC12C` [Compound 87, 3β-Cholestanyl 2,3,4,6-tetra-O-sodium sulfonato-α-D-glucopyranosyl-(1→4)-2,3,6-tri-O-sodium sulfonato-α-D-glucopyranosyl-(1→4)-2,3,6-tri-O-sodium sulfonato-β-D-glucopyranoside], the Kd at VEGF came out at 190 ± 60 nM; on FGF-1 (setting [4]) it was 24.8 ± 2.3 nM; at FGF-2 it was 547 ± 50 nM. In assay [1], the APTT is recorded as 51.6 s. The Heptest in assay [2] is recorded as 29.2 s. Also, the inhibitory constant (Ki) in assay [3] worked out at 9.1 ± 2.5 nM.

On to `CC(C)CCC[C@@H](C)[C@H]1CC[C@H]2[C@@H]3CCC4CC(O[C@@H]5O[C@H](COS(=O)(=O)O)[C@@H](O[C@@H]6O[C@H](COS(=O)(=O)O)[C@H](OS(=O)(=O)O)[C@H](OS(=O)(=O)O)[C@H]6OS(=O)(=O)O)[C@H](OS(=O)(=O)O)[C@H]5OS(=O)(=O)O)CC[C@]4(C)[C@H]3CC[C@]12C` (stereo partly drawn) [Compound 112, 3′-Cholestanyl 2,3,4,6-tetra-O-sulfo-β-D-galactopyranosyl-(1→4)-2,3,6-tri-O-sulfo-β-D-glucopyranoside, heptasodium salt], for which the Kd at VEGF worked out at 430 ± 140 nM; on FGF-1, 900 ± 150 nM; on FGF-2 it was 2100 ± 300 nM. The molecule further displayed an APTT in assay [1] of 38.9 s. The Heptest in assay [2] came out at 25.4 s. The values for the IC50 in the assay with HSV-2 and in the assay with RSV were 0.45 µg/mL and 2.4 µg/mL, respectively.
